Results as given in patent US6143774A, “Imidazole n-benzyldioxol derivatives, method for preparing same, resulting intermediates, pharmaceutical compositions and use of said derivatives as endothelin antagonists” (Hoechst Marion Roussel, priority 1995, dated 2000).

Assays:
endothelin (ET1) [1] = assay: Test for antagonistic activity of endothelin in the demedullated rat; type: in vivo, male Sprague Dawley rats
Protocol: 3) Test for Antagonistic Activity of Endothelin in the Demedullated Rat
Male Sprague Dawley rats (250 to 350 g) are anaesthetized (sodium pentobarbital 60 mg/kg injected by intraperitoneal route). The animal is placed under assisted respiration and a bilateral section of the vagus nerves is carried out. The rat is then demedullated.
The average arterial pressure is recorded with a heparin catheter (PE50) introduced into the carotid of the animal, and connected via a pressure sensor and an amplifier to a recorder (Gould, Pressure Processor). A catheter is introduced into the pudendal vein in order to allow injection of the molecules to be studied. After a stabilization period (about 15 minutes), the product or the solvent is injected 10 minutes before a range of increasing doses of endothelin which are injected every 2 minutes (0.1-0.3-1-3-10 μg/kg).
The anatagonistic activity of the products is estimated by the percentage inhibition in the increase in pressure induced by the endothelin at doses of 3 and 10 μg/kg.

[2] = system: endothelin (ET), isolated thoracic aorta of a rat; assay: Antagonistic activity of endothelin on the isolated aorta of a rat; set-up: species or system Wistar male rats
Protocol: The thoracic aorta is removed from Wistar male rats (approximately 350 g) (IFFA CREDO France) anaesthetized with pentobarbital (60 mg/kg IP) then exsanguinated. The aorta is rapidly put into a physiological solution at ambient temperature. A 1 to 2 mm ring without endothelium is put in an isolated organ bath containing 5 ml of the following physiological solution (composition in mM NaCl: 118.4; KCl: 4.7; MgSO4, 7H2 O: 1.2; CaCl2, 2H2 O: 2.5; KH2 PO4 : 1.2; NaHCO3 : 25; glucose: 10.1) the medium is maintained at 37° C. and oxygenated with a mixture of oxygen (95%) carbon dioxide (5%). The initial pressure imposed is 2 g, the rings are left at rest for 60 to 90 minutes. The reference contraction is caused by the addition of 2 successive concentrations of 3 μM of noradrenalin, left in contact for 15 minutes, followed by 3 washings, the second response serves as the reference contraction. After return to the base line, incubation is carried out for 15 minutes with a concentration of the product to be tested or the solvent then cumulative concentrations of endothelin are added every 5 minutes (concentrations of […]). The inhibition induced by the product is calculated as a % of the reduction relative to the reactivity of the control curves over 2 points: concentration of 10 and 30 nM of endothelin.

endothelin (ET1) [3] = assay: Protection against sudden death induced by IV injection of endothelin (ET1) in a female mouse; type: in vivo
Protocol: 5) Protection Against Sudden Death Induced by IV Injection of Endothelin (ET1) in a Female Mouse
A lethal dose of ET1 (10 nmole/kg IV) is injected into female mice. The solvent or the molecules to be studied are injected 10 minutes before (i.v. route) or 30 minutes before (oral route) the endothelin.
The protection is calculated in the form of ED50 (50% effective dose, or the dose capable of reducing the mortality by 50% relative to the control group).

Endothelin A receptor = biological target: T1, Endothelin A receptor (Rattus norvegicus, UniProt P26684); assay: Study of the affinity for the endothelin A receptor (125I endothelin displacement, rat heart ventricle membranes); type: binding; details: rat heart (ventricles) membranes, 25° C., 60 minutes
T1 construct: A membrane preparation is prepared from the heart (ventricles) of a rat; from tissue; host or cells: rat heart ventricles (membrane preparation)
T1 sequence (P26684 21-426): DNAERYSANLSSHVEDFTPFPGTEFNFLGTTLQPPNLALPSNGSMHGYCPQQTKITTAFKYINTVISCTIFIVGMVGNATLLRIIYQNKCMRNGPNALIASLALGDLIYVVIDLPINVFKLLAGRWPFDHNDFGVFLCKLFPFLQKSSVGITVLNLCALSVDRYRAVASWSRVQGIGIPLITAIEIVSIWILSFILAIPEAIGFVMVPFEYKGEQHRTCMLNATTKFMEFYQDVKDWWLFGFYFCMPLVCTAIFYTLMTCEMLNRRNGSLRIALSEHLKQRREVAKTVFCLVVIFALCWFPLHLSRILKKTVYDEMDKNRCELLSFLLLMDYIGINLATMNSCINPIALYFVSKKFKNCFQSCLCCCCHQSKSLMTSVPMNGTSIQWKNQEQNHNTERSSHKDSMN
Protocol: 1) Study of the Affinity for the Endothelin a Receptor
A membrane preparation is prepared from the heart (ventricles) of a rat. The tissue is ground up in a POLYTRON in a 50 mM Tris buffer pH=7.4.
(§1) After 30 minutes at 25° C. (W.B.) the homogenate is centrifuged at 30,000 g for 15 minutes (2 centrifugations with intermediate take-up in the Tris buffer pH 7.4).
(§2) The pellets are suspended in an incubation buffer (25 mM Tris, 5 microg/ml pepstatin A, 3 microg/ml aprotinin, 0.1 mM PMSF, 3 mM EDTA, 1 mM EGTA pH 7.4).
(§3) 2 ml aliquoted fractions are distributed in hemolysis tubes and ^125 I endothelin (approx. 5,000 dpm/tube) and the product to be studied are added. (The product is first tested at 3×10 5M three times). When the tested product displaces more than 50% of the radioactivity specifically bound to the receptor, it is tested again according to a range of 7 concentrations in order to determine the concentration which inhibits by 50% the radioactivity specifically bound to the receptor. In this way the 50% inhibitory concentration is determined.
(§4) The non-specific bond is determined by the addition of endothelin at 10^-6 M (three times). After incubation at 25° C. for 60 minutes, replacing in a water bath at 0° C. for 5 minutes, filtration under reduced pressure and rinsing with Tris buffer pH 7.4, the radioactivity is counted in the presence of scintillating Triton.
(§5) The result is expressed directly as the 50% inhibitory concentration (IC50), that is to say as the concentration of product studied, expressed in nM, necessary to displace 50% of the specific radioactivity fixed to the receptor studied.

Endothelin B receptor = biological target: T2, Endothelin B receptor (Rattus norvegicus, UniProt P21451); assay: Study of the affinity for the endothelin B receptor (125I endothelin displacement, rat cortex plus cerebellum membranes); type: binding; details: rat rear cortex plus cerebellum membranes, 25° C., 60 minutes
T2 construct: A membrane preparation is prepared from the rear cortex plus the cerebellum of a rat; from tissue; host or cells: rat rear cortex plus cerebellum (membrane preparation)
T2 sequence (P21451 27-442): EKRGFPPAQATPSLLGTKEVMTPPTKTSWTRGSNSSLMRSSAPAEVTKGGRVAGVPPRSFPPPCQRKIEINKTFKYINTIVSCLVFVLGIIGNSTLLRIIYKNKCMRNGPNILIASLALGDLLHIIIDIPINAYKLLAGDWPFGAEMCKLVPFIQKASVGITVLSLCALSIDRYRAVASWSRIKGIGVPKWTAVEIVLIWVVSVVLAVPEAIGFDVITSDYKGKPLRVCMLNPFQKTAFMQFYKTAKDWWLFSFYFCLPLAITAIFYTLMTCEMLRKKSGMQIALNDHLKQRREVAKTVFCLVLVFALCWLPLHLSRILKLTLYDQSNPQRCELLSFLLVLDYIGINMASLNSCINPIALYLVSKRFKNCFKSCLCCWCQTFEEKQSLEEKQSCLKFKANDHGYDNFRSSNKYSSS
Protocol: 2) Study of the Affinity for the Endothelin B Receptor
A membrane preparation is prepared from the rear cortex plus the cerebellum of a rat. The tissue is ground up in a POLYTRON in a 50 mM Tris buffer pH=7.4.
as §1, §2
as §3, with “3×10^-5 M” for “3×10 5M”
as §4, §5

[4] = 10 min, IV, 10 minutes before ET1 10 nmole/kg IV
[5] = 0.5 h, PO, 30 minutes before ET1 10 nmole/kg IV

SMILES: CCCc1nc(SC2CCC(CC(=O)O)CC2)c(C(=O)O)n1Cc1cc2c(cc1Cl)OCO2 (centres unmarked) [Example 2, 4-((4-(carboxymethyl)cyclohexyl)thio)-1-((6-chloro-1,3-benzodioxol-5-yl)methyl)-2-propyl-1H-imidazole-5-carboxylic acid]
- % inhibition of vasoconstriction (endothelin (ET1) [1]; dose 0.3 mg/kg, ET1 10 μg/kg): 39%
- % inhibition of vasoconstriction (endothelin (ET1) [1]; dose 0.3 mg/kg, ET1 (3 μg/kg)): 56%
- % inhibition of vasoconstriction (endothelin (ET1) [1]; dose 1.0 mg/kg, ET1 10 μg/kg): 65%
- % inhibition of vasoconstriction (endothelin (ET1) [1]; dose 1.0 mg/kg, ET1 (3 μg/kg)): 60%
- % inhibition of vasoconstriction (endothelin (ET1) [1]; dose 3.0 mg/kg, ET1 10 μg/kg): 77%
- % inhibition of vasoconstriction (endothelin (ET1) [1]; dose 3.0 mg/kg, ET1 (3 μg/kg)): 63%
- % inhibition of contraction ([2]; antagonist 0.1 μM, ET 30 nM): 61%
- % inhibition of contraction ([2]; antagonist 0.1 μM, ET 10 Nm): 71%
- % inhibition of contraction ([2]; antagonist 1.0 μM, ET 30 nM): 100%
- % inhibition of contraction ([2]; antagonist 1.0 μM, ET 10 Nm): 94%
- ED50 (endothelin (ET1) [3]; [4]): 0.8 mg/kg
- ED50 (endothelin (ET1) [3]; [5]): 1.1 mg/kg
- IC50 (Endothelin A receptor): 1.1 nM
- IC50 (Endothelin B receptor): 194 nM

SMILES: O=C(O)CCCCCSc1nc(C2OCCO2)n(Cc2cc3c(cc2Cl)OCO3)c1C(=O)O [Example 3]
- % inhibition of vasoconstriction (endothelin (ET1) [1]; dose 1.0 mg/kg, ET1 10 μg/kg): 53%
- % inhibition of vasoconstriction (endothelin (ET1) [1]; dose 1.0 mg/kg, ET1 (3 μg/kg)): 52%
- % inhibition of vasoconstriction (endothelin (ET1) [1]; dose 3.0 mg/kg, ET1 10 μg/kg): 71%
- % inhibition of vasoconstriction (endothelin (ET1) [1]; dose 3.0 mg/kg, ET1 (3 μg/kg)): 64%
- ED50 (endothelin (ET1) [3]; [4]): 5 mg/kg
- ED50 (endothelin (ET1) [3]; [5]): 24.1 mg/kg

SMILES: COCc1nc(SCCCCCC(=O)O)c(C(=O)O)n1Cc1cc2c(cc1Cl)OCO2 [Example 4]
- % inhibition of vasoconstriction (endothelin (ET1) [1]; dose 10.0 mg/kg, ET1 10 μg/kg): 38%
- % inhibition of vasoconstriction (endothelin (ET1) [1]; dose 10.0 mg/kg, ET1 (3 μg/kg)): 49%

SMILES: CCCc1nc(SCCCCCC(=O)O)c(C(=O)O)n1Cc1cc2c(cc1Cl)OCO2 [Example 6]
- % inhibition of vasoconstriction (endothelin (ET1) [1]; dose 1.0 mg/kg, ET1 10 μg/kg): 33%
- % inhibition of vasoconstriction (endothelin (ET1) [1]; dose 1.0 mg/kg, ET1 (3 μg/kg)): 42%
- % inhibition of vasoconstriction (endothelin (ET1) [1]; dose 3.0 mg/kg, ET1 10 μg/kg): 37%
- % inhibition of vasoconstriction (endothelin (ET1) [1]; dose 3.0 mg/kg, ET1 (3 μg/kg)): 49%
- % inhibition of contraction ([2]; antagonist 0.1 μM, ET 30 nM): 99%
- % inhibition of contraction ([2]; antagonist 0.1 μM, ET 10 Nm): 96%
- % inhibition of contraction ([2]; antagonist 1.0 μM, ET 30 nM): 98%
- % inhibition of contraction ([2]; antagonist 1.0 μM, ET 10 Nm): 96%
- ED50 (endothelin (ET1) [3]; [4]): 3.9 mg/kg
- IC50 (Endothelin A receptor): 1.2 nM
- IC50 (Endothelin B receptor): 293 nM

SMILES: CCCc1nc(SCCCCC(=O)O)c(C(=O)O)n1Cc1cc2c(cc1Cl)OCO2 [Example 8, 4-((4-carboxybutyl)thio)-1-((6-chloro-1,3-benzodioxol-5-yl)methyl)-2-(propyl)-1H-imidazole-5-carboxylic acid]
- % inhibition of vasoconstriction (endothelin (ET1) [1]; dose 1.0 mg/kg, ET1 10 μg/kg): 22%
- % inhibition of vasoconstriction (endothelin (ET1) [1]; dose 1.0 mg/kg, ET1 (3 μg/kg)): 40%
- % inhibition of vasoconstriction (endothelin (ET1) [1]; dose 3.0 mg/kg, ET1 10 μg/kg): 47%
- % inhibition of vasoconstriction (endothelin (ET1) [1]; dose 3.0 mg/kg, ET1 (3 μg/kg)): 57%
- % inhibition of contraction ([2]; antagonist 0.1 μM, ET 30 nM): 97%
- % inhibition of contraction ([2]; antagonist 0.1 μM, ET 10 Nm): 97%
- % inhibition of contraction ([2]; antagonist 1.0 μM, ET 30 nM): 96%
- % inhibition of contraction ([2]; antagonist 1.0 μM, ET 10 Nm): 95%
- ED50 (endothelin (ET1) [3]; [4]): 3.5 mg/kg
- IC50 (Endothelin A receptor): 1.9 nM
- IC50 (Endothelin B receptor): 600 nM

SMILES: CCCc1nc(SC2CCC(=CC(=O)O)CC2)c(C(=O)O)n1Cc1cc2c(cc1Cl)OCO2 (centres unmarked) [Example 10, 4-((4-(carboxymethylene)cyclohexyl)thio)-1-((6-chloro 1,3-benzodioxol-5-yl)methyl)-2-propyl-1H-imidazole-5-carboxylic acid]
- % inhibition of vasoconstriction (endothelin (ET1) [1]; dose 1.0 mg/kg, ET1 10 μg/kg): 39%
- % inhibition of vasoconstriction (endothelin (ET1) [1]; dose 1.0 mg/kg, ET1 (3 μg/kg)): 59%
- % inhibition of vasoconstriction (endothelin (ET1) [1]; dose 3.0 mg/kg, ET1 10 μg/kg): 61%
- % inhibition of vasoconstriction (endothelin (ET1) [1]; dose 3.0 mg/kg, ET1 (3 μg/kg)): 58%
- ED50 (endothelin (ET1) [3]; [4]): 3.3 mg/kg
- ED50 (endothelin (ET1) [3]; [5]): 3.2 mg/kg
- IC50 (Endothelin A receptor): 1.2 nM
- IC50 (Endothelin B receptor): 210 nM

SMILES: CCCCc1nc(SCCCCCC(=O)O)c(C(=O)O)n1Cc1cc2c(cc1Cl)OCO2 [Example 12, 2-butyl 4-((5-carboxypentyl)thio) 1-((6-chloro 1,3-benzodioxol-5-yl)methyl)-1H-imidazole-5-carboxylic acid]
- % inhibition of vasoconstriction (endothelin (ET1) [1]; dose 10.0 mg/kg, ET1 10 μg/kg): 35%
- % inhibition of vasoconstriction (endothelin (ET1) [1]; dose 10.0 mg/kg, ET1 (3 μg/kg)): 30%
- % inhibition of contraction ([2]; antagonist 0.1 μM, ET 30 nM): 65%
- % inhibition of contraction ([2]; antagonist 0.1 μM, ET 10 Nm): 88%
- % inhibition of contraction ([2]; antagonist 1.0 μM, ET 30 nM): 98%
- % inhibition of contraction ([2]; antagonist 1.0 μM, ET 10 Nm): 98%
- IC50 (Endothelin A receptor): 1.1 nM
